Source: the supplement of paper PMC10883282

Tests used:
Experiment in all cases: standardised AUC of viability dose-response curve (72 h) (fraction (0-1)); higher = less growth inhibition (more resistant)
A204 = test system: A204
Procedure, shortened: (§1)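 Viability of sarcoma cell lines was read with ATPLite after 72 h of triplicate treatment in 384-well plates with 2.5 µl of compound from a compound-plate series of 10 mM to 0.0002 mM. Viability was scaled 1 (full) to 0 (none) and fitted with a four-parameter log-logistic model for each drug and cell line. The reported standardised area under the dose-response curve in log-dose space comes from a modified drexplorer computeAUC, where 1 is no response and 0 is full response.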

G401 = test system: G401
Procedure, shortened: as §1

HS729 = test system: HS729
Procedure, shortened: as §1

HT1080 = test system: HT1080
Procedure, shortened: as §1

KHOS-240S = test system: KHOS-240S
Procedure, shortened: as §1

KHOS-NP = test system: KHOS-NP
Procedure, shortened: as §1

MES-SA = test system: MES-SA
Procedure, shortened: as §1

RD-ES = test system: RD-ES
Procedure, shortened: as §1

RD = test system: RD
Procedure, shortened: as §1

SK-ES-1 = test system: SK-ES-1
Procedure, shortened: as §1

SK-LMS-1 = test system: SK-LMS-1
Procedure, shortened: as §1

SW1353 = test system: SW1353
Procedure, shortened: as §1

SW684 = test system: SW684
Procedure, shortened: as §1

SW872 = test system: SW872
Procedure, shortened: as §1

SW982 = test system: SW982
Procedure, shortened: as §1

SYO-1 = test system: SYO-1
Procedure, shortened: as §1

VA-ES-BJ = test system: VA-ES-BJ
Procedure, shortened: as §1

| Compound | standardised AUC (A204) | standardised AUC (G401) | standardised AUC (HS729) | standardised AUC (HT1080) | standardised AUC (KHOS-240S) | standardised AUC (KHOS-NP) | standardised AUC (MES-SA) | standardised AUC (RD-ES) | standardised AUC (RD) | standardised AUC (SK-ES-1) | standardised AUC (SK-LMS-1) | standardised AUC (SW1353) | standardised AUC (SW684) | standardised AUC (SW872) | standardised AUC (SW982) | standardised AUC (SYO-1) | standardised AUC (VA-ES-BJ) |
| --- | --- | --- | --- | --- | --- | --- | --- | --- | --- | --- | --- | --- | --- | --- | --- | --- | --- |
| Cn1cc(C2=C(c3cn(C4CCN(Cc5ccccn5)CC4)c4ccccc34)C(=O)NC2=O)c2ccccc21 [ENZASTAURIN] | 0.979 | 1 | 0.995 | 1 | 0.978 | 0.992 | 0.988 | 1 | 0.995 | 0.986 | 0.953 | 0.943 | 0.961 | 0.973 | 0.961 | 0.965 | 1 |
| COC(=O)[C@@]1(O)C[C@H]2O[C@]1(C)n1c3ccccc3c3c4c(c5c6ccccc6n2c5c31)C(=O)NC4 [K-252A] | 0.617 | 0.745 | 0.756 | 0.818 | 0.717 | 0.776 | 0.631 | 0.647 | 0.81 | 0.543 | 0.666 | 0.766 | 0.774 | 0.68 | 0.628 | 0.668 | 0.7 |
| COCCNc1cc(NC(=O)N2CCCc3cc(CN4CCN(C)CC4=O)c(C=O)nc32)ncc1C#N [ROBLITINIB] | 0.963 | 0.979 | 0.971 | 0.996 | 0.983 | 0.994 | 0.975 | 0.978 | 0.992 | 0.976 | 0.988 | 0.995 | 0.994 | 1 | 0.997 | 0.959 | 0.994 |
| CC(C)(C)c1nc(-c2cccc(NS(=O)(=O)c3c(F)cccc3F)c2F)c(-c2ccnc(N)n2)s1 [DABRAFENIB] | 0.881 | 0.921 | 0.853 | 0.924 | 0.96 | 0.863 | 0.866 | 0.854 | 0.941 | 0.812 | 0.779 | 0.925 | 0.97 | 0.586 | 0.723 | 0.946 | 0.876 |
| CO[C@H]1C[C@@H]2CC[C@@H](C)[C@@](O)(O2)C(=O)C(=O)N2CCCC[C@H]2C(=O)O[C@H]([C@H](C)C[C@@H]2CC[C@@H](OCCO)[C@H](OC)C2)CC(=O)[C@H](C)/C=C(\C)[C@@H](O)[C@@H](OC)C(=O)[C@H](C)C[C@H](C)/C=C/C=C/C=C/1C [CERTICAN] | 0.633 | 0.849 | 0.926 | 0.962 | 0.819 | 0.971 | 0.548 | 0.76 | 0.765 | 0.684 | 0.645 | 0.835 | 0.841 | 0.688 | 0.728 | 0.885 | 0.604 |
| O=C(Nc1nc2cccc(-c3ccc(CN4CCS(=O)(=O)CC4)cc3)n2n1)C1CC1 [FILGOTINIB] | 0.985 | 0.993 | 0.906 | 0.991 | 0.991 | 0.991 | 0.987 | 0.998 | 0.985 | 0.981 | 0.987 | 0.949 | 0.994 | 0.979 | 0.993 | 0.892 | 0.96 |
| CC1(C)CC=C(c2nc(C3CC(C)(C)OC(C)(C)C3)ccc2NC(=O)c2nc(C#N)c[nH]2)CC1 [EDICOTINIB] | 0.985 | 0.987 | 0.931 | 0.984 | 0.987 | 0.994 | 0.971 | 0.994 | 0.984 | 0.976 | 0.99 | 1 | 1 | 1 | 1 | 1 | 0.991 |
| COC(=O)N[C@@H](C)CNc1nccc(-c2cn(C(C)C)nc2-c2cc(Cl)cc(NS(C)(=O)=O)c2F)n1 [ENCORAFENIB] | 0.922 | 0.922 | 0.925 | 0.933 | 0.956 | 0.903 | 0.9 | 0.903 | 0.896 | 0.843 | 0.887 | 0.941 | 0.961 | 0.665 | 0.818 | 0.977 | 0.923 |
| N#CC1(c2ccc(NC(=O)c3cccnc3NCc3ccncc3)cc2)CCCC1 [APATINIB] | 0.821 | 0.956 | 0.942 | 0.991 | 0.966 | 0.968 | 0.972 | 0.98 | 0.996 | 0.988 | 0.982 | 0.965 | 0.987 | 0.98 | 0.998 | 0.893 | 1 |
| COc1cc(Nc2ncc(F)c(Nc3ccc4c(n3)N(COP(=O)(O)O)C(=O)C(C)(C)O4)n2)cc(OC)c1OC [FOSTAMATINIB] | 0.774 | 0.842 | 0.871 | 0.968 | 0.798 | 0.911 | 0.885 | 0.857 | 0.906 | 0.757 | 0.854 | 0.819 | 0.886 | 0.803 | 0.755 | 0.779 | 0.845 |
| CC1(COc2ccc3c(c2)ncn3-c2ccc3cccc(N4CCC(N)CC4)c3n2)COC1 [CRENOLANIB] | 0.653 | 0.956 | 0.994 | 0.93 | 0.887 | 0.886 | 0.903 | 0.898 | 0.942 | 0.823 | 0.931 | 0.917 | 0.969 | 0.93 | 0.853 | 0.804 | 0.891 |
| CCN(CC)CCNC(=O)c1c(C)[nH]c(/C=C2\C(=O)Nc3ccc(F)cc32)c1C [SUNITINIB] | 0.558 | 0.907 | 0.804 | 0.864 | 0.815 | 0.88 | 0.829 | 0.755 | 0.836 | 0.716 | 0.908 | 0.855 | 0.876 | 0.813 | 0.754 | 0.648 | 0.881 |
| CC(C)Oc1ccc(-c2nn([C@@H](C)c3oc4ccc(F)cc4c(=O)c3-c3cccc(F)c3)c3ncnc(N)c23)cc1F [UMBRALISIB] | 0.969 | 0.983 | 0.939 | 0.984 | 0.983 | 0.994 | 0.989 | 0.993 | 0.998 | 0.985 | 0.966 | 0.949 | 0.937 | 0.987 | 1 | 0.97 | 0.982 |
| C[C@H](Nc1ncnc2nc[nH]c12)c1cc2cccc(Cl)c2c(=O)n1-c1ccccc1 [DUVELISIB] | 0.864 | 0.912 | 0.902 | 0.996 | 0.946 | 0.985 | 0.901 | 0.915 | 0.941 | 0.917 | 0.834 | 0.879 | 0.666 | 0.869 | 0.915 | 0.921 | 0.884 |
| CCc1cnn2c(NCc3ccc[n+]([O-])c3)cc(N3CCCC[C@H]3CCO)nc12 [DINACICLIB] | 0.497 | 0.439 | 0.64 | 0.525 | 0.51 | 0.509 | 0.398 | 0.419 | 0.484 | 0.378 | 0.598 | 0.551 | 0.798 | 0.6 | 0.546 | 0.519 | 0.498 |
| O=C1NC(=O)[C@@H](c2cn3c4c(cccc24)CCC3)[C@@H]1c1c[nH]c2ccccc12 [TIVANTINIB] | 0.844 | 0.865 | 0.896 | 0.796 | 0.782 | 0.867 | 0.754 | 0.768 | 0.789 | 0.718 | 0.79 | 0.879 | 0.883 | 0.859 | 0.792 | 0.804 | 0.829 |
| CN1CC[C@@H](NC(=O)Nc2ccc(C#N)cc2)C[C@@H]1c1nc2ccccc2[nH]1 [GLASDEGIB] | 0.982 | 0.976 | 0.985 | 0.988 | 0.991 | 0.992 | 0.976 | 0.959 | 0.987 | 0.953 | 0.982 | 0.988 | 0.99 | 0.988 | 0.991 | 0.976 | 0.984 |
| Cc1cc2c(F)c(Oc3ncnn4cc(OC[C@@H](C)O)c(C)c34)ccc2[nH]1 [BRIVANIB] | 0.973 | 0.994 | 0.989 | 0.996 | 0.996 | 0.995 | 0.985 | 0.996 | 0.991 | 0.987 | 0.985 | 0.999 | 1 | 1 | 0.995 | 0.955 | 1 |
| Clc1ccc(Nc2nnc(Cc3ccncc3)c3ccccc23)cc1 [VATALANIB] | 0.864 | 0.971 | 0.989 | 1 | 0.978 | 1 | 0.998 | 0.99 | 0.995 | 0.998 | 0.975 | 0.979 | 0.988 | 0.994 | 0.997 | 0.937 | 1 |
| CC[C@@H]1CN(C(=O)NCC(F)(F)F)C[C@@H]1c1cnc2cnc3[nH]ccc3n12 [UPADACITINIB] | 0.97 | 0.961 | 0.915 | 0.976 | 0.956 | 0.975 | 0.977 | 0.994 | 0.993 | 0.988 | 0.974 | 0.945 | 0.984 | 0.951 | 0.979 | 0.913 | 0.962 |
| O=c1sn(-c2cccc3ccccc23)c(=O)n1Cc1ccccc1 [TIDEGLUSIB] | 0.994 | 0.951 | 0.913 | 0.999 | 0.983 | 0.99 | 0.971 | 0.985 | 0.996 | 0.975 | 0.99 | 0.966 | 0.964 | 0.976 | 0.993 | 0.962 | 0.972 |
